According to patent US20220220448A1, “INDUCED HUMAN COLITIC ORGANOIDS” (The Cleveland Clinic Foundation, priority 2019, published 2022):

Assays:
iHUCOs (UC organoids) = test: Repertaxin treatment of iHUCOs in vitro during development from spheroids to organoids (IF, IHC, H&E, in situ hybridization); assay type: cell-based, human
Excerpt: (§1) FIGS. 6A-U: Repertaxin attenuates the progression of the colitic phenotype in iHUCOs in vitro. (A, B) Representative immunofluorescence co-localization expression of CXCR1 (red) and CXCL8 (green) expressed in epithelium and mesenchyme of iHNO and iHUCO in the absence (A) or presence of repertaxin (B). (C, D) Summarized percentages of cells positive for CXCR1, CXCL8 and both, in the epithelium and mesenchyme of non-IBD and UC iHCOs, after treatment with repertaxin (20 μm) compared to vehicle (Ctrl). (E) Representative H&E of non-IBD and UC organoids in Ctrl compared to repertaxin treated (F). (G, H) Organoid mean diameter and epithelial thickness after 21 days of treatment with repertaxin compared to control. […] (S, T) Quantification of the percentage of the cells in control vs. repertaxin-treated organoids, positive for RhoA in plasma membrane-only (Mem) and cytoplasm (Cyt). […] IHC Scale bar, 40 um. IF Scale bar, 25 um. N=3 each; except for barrier studies, N=1. ns: not significant, **(p<0.01), ***(p<0.001), ****(p<0.0001). The upregulation of the CXCL8 receptor pro-inflammatory interaction in iHUCOs (FIG. 5) led us to study the effect of repertaxin, a small molecule inhibitor of the CXCL8 receptor, on organoids development. In brief, we treated both UC and non-IBD organoids with repertaxin for 21 days, during their development from spheroids to organoids and compared their phenotypic characteristics to vehicle (Ctrl) organoids.

iHUCOs = test: Repertaxin in vivo: UC spheroids in TS-HA hydrogel beads implanted subcutaneously in NSG mice
Excerpt: (§2) FIGS. 7A-U: Repertaxin attenuates the progression of the colitic phenotype in iHUCOs in vivo. (A) Schematic representation of repertaxin study in vivo; spheroids encapsulated in TS-HA hydrogel beads were implanted subcutaneously in the dorsal flanks of immunocompromised NSG mice receiving daily injections of repertaxin vs. PBS (21 days). (B, C) Representative immunofluorescence dual-staining of CXCR1 (red) and CXCL8 (green) expressed in epithelium and mesenchyme of iHNO and iHUCO in Ctrl (B) or repertaxin-treated (C). (D, E) Summarized percentages of cells positive for CXCR1, CXCL8 and both, in the epithelium and mesenchyme of non-IBD and UC organoids, after treatment with repertaxin (20 mg/kg) compared to PBS (Ctrl). (F-G) Representative H&E of non-IBD and UC organoids harvested after 21 days for control (F) and repertaxin treatment (G). (H, I) Mean organoid diameter and epithelial thickness after 21 days of repertaxin treatment vs. Ctrl. […] Results reported for the plasma membrane only (Mem), and cytoplasm+nucleus (Cyt+Nuc) cellular compartments. (R, S) Representative immunohistochemistry of RhoA, highlighting the effect of repertaxin on the cellular localization of the protein in plasma membrane only (Mem), and cytoplasm (Cyt) compartments. (T, U) Summarized percentages of cells expressing RhoA in Ctrl vs. repertaxin-treated organoids for plasma membrane-only (Mem) and cytoplasm (Cyt). IHC Scale bar, 40 um. IF Scale bar, 25 um. N=3 each. ns=not significant, *(p<0.05), **(p<0.01), ***(p<0.001), ****(p<0.0001). […] To test the significance of our repertaxin observations in vivo, we studied the effect of repertaxin on the developmental progression of spheroids to organoids, implanted subcutaneously in the dorsal flank of NSG mice (FIG. 7A, STAR Methods). In brief, we encapsulated the spheroids in TS-HA hydrogel beads and implanted the beads subcutaneously. Mice were then treated daily for 21 days with either 20 mg/kg repertaxin or PBS (control). The rate of growth was measured twice per week with calipers, and the volume calculated (STAR Methods).

[1] = tested on: epithelial barrier of non-IBD organoids (iHNOs); test: Epithelial barrier permeability by microinjection of 4 kD dextran, real-time, iHNOs; assay type: cell-based, human; conditions: 4 kDa dextran, 15 hours, treated vs untreated
Excerpt: (§3) FIGS. 6A-U: Repertaxin attenuates the progression of the colitic phenotype in iHUCOs in vitro. (A, B) Representative immunofluorescence co-localization expression of CXCR1 (red) and CXCL8 (green) expressed in epithelium and mesenchyme of iHNO and iHUCO in the absence (A) or presence of repertaxin (B). (C, D) Summarized percentages of cells positive for CXCR1, CXCL8 and both, in the epithelium and mesenchyme of non-IBD and UC iHCOs, after treatment with repertaxin (20 μm) compared to vehicle (Ctrl). (E) Representative H&E of non-IBD and UC organoids in Ctrl compared to repertaxin treated (F). (G, H) Organoid mean diameter and epithelial thickness after 21 days of treatment with repertaxin compared to control. […] (S, T) Quantification of the percentage of the cells in control vs. repertaxin-treated organoids, positive for RhoA in plasma membrane-only (Mem) and cytoplasm (Cyt). […] IHC Scale bar, 40 um. IF Scale bar, 25 um. N=3 each; except for barrier studies, N=1. ns: not significant, **(p<0.01), ***(p<0.001), ****(p<0.0001). Moreover, to functionally confirm the adherens vs. tight junction signature in UC compared to non-IBD organoids, we used the recently described microinjection technique by Hill et al. to measure and compare the epithelial barrier permeability for both UC and non-IBD organoids in real-time. […]

iHNOs = test: Repertaxin in vivo: non-IBD spheroids in TS-HA hydrogel beads implanted subcutaneously in NSG mice
Excerpt: as §2

[2] = tested on: UC epithelial barrier (iHUCOs); test: Epithelial barrier permeability by microinjection of 4 kD dextran, real-time, iHUCOs; assay type: cell-based, human; conditions: 4 kDa dextran, 15 hours, treated vs untreated
Excerpt: as §3

[3] = tested on: iHNOs (non-IBD organoids); test: Repertaxin treatment of iHNOs in vitro during development from spheroids to organoids (IF, IHC, H&E); assay type: cell-based, human
Excerpt: as §1

[4] = UC organoids, IHC, repertaxin vs control
[5] = iHUCOs epithelium, IHC, repertaxin vs control
[6] = iHUCOs, 21 days repertaxin vs control
[7] = iHUCOs, repertaxin (20 μm), 21 days, vs control
[8] = iHUCOs, repertaxin (20 μm), 21 days, vs vehicle (Ctrl), average
[9] = UC organoids, 20 mg/kg daily, 21 days, vs PBS
[10] = iHUCOs, 20 mg/kg daily, 21 days, vs PBS
[11] = iHUCOs, IHC, vs untreated control
[12] = non-IBD organoids, 20 mg/kg daily, 21 days, vs PBS
[13] = iHNOs, IHC, repertaxin vs control
[14] = non-IBD organoids, 21 days repertaxin vs control
[15] = non-IBD organoids, IHC, repertaxin vs control
[16] = non-IBD organoids, repertaxin (20 μm), 21 days, vs control

epithelial permeability (dye release) [1]: did not have a significant effect | rate of permeability of the epithelial barrier (dye release) [2]: significantly decreased
SMILES: CC(C)Cc1ccc([C@@H](C)C(=O)NS(C)(=O)=O)cc1 [repertaxin]
cytoplasmic and nuclear expression of E-cadherin (iHUCOs (UC organoids); [4]): greater | cytoplasmic and nuclear expression of β-catenin (iHUCOs (UC organoids); [4]): greater | RhoA expression in cytoplasm (iHUCOs (UC organoids); [5]): less RhoA expression | less RhoA expression on the membrane (activated RhoA) (iHUCOs (UC organoids); [5]): ~5 fold | epithelial thickness (iHUCOs (UC organoids); [6]): less thick epithelium | organoid size (iHUCOs (UC organoids); [6]): significantly lower size | Claudin-1 expression (iHUCOs (UC organoids); iHUCOs, IHC, repertaxin vs control): significantly more expression | CXCL8 expression (iHUCOs (UC organoids); [7]): significantly lower than control | percentage of co-expression of CXCL8/CXCR1 (iHUCOs (UC organoids); [7]): significantly lower than control | lower expression of CXCR1 in the epithelium (iHUCOs (UC organoids); [8]): 7 fold | lower expression of CXCR1 in the mesenchyme (iHUCOs (UC organoids); [8]): 9 fold | expression pattern of p-YAP1 (iHUCOs (UC organoids); treated iHUCOs, IHC): more closely resembled the expression patterns in iHNOs | expression pattern of LGR5 (iHUCOs (UC organoids); treated iHUCOs, in situ hybridization): more closely resembled the expression patterns in iHNOs | overall calculated volume of implanted beads (iHUCOs; 20 mg/kg repertaxin daily for 21 days vs PBS, groups (UC and non-IBD) not told apart): significantly greater in the PBS than in the repertaxin-treated groups | CXCL8 expression (iHUCOs; [9]): less | CXCR1 expression (iHUCOs; [9]): less | Ki67 proliferation rate in the epithelium (iHUCOs; [10]): significantly reduced | epithelial thickness (iHUCOs; [10]): significant less thick epithelium | Claudin-1 expression (iHUCOs; iHUCOs, IHC, vs control): significantly increased | cytoplasmic expression of RhoA (iHUCOs; iHUCOs, IHC, vs control): strongly decreased | membranous expression of RhoA (iHUCOs; iHUCOs, IHC, vs control): strongly decreased | cytoplasmic and nuclear expression of E-cadherin (iHUCOs; [11]): greater cytoplasmic and nuclear expression | cytoplasmic and nuclear expression of β-catenin (iHUCOs; [11]): greater cytoplasmic and nuclear expression | epithelial thickness (iHNOs; iHNOs, 20 mg/kg daily, 21 days, vs PBS): no significant effect | E-cadherin expression pattern (iHNOs; iHNOs, IHC, vs control): higher rate of expression in membrane | RhoA expression (iHNOs; iHNOs, IHC, vs control): did not have a significant effect | β-catenin expression pattern (iHNOs; iHNOs, IHC, vs control): higher rate of expression in membrane | Ki67 proliferation rate in the epithelium (iHNOs; non-IBD epithelium, 20 mg/kg daily, 21 days, vs PBS): did not have a significant effect | CXCL8 expression (iHNOs; [12]): less | CXCR1 expression (iHNOs; [12]): less | Claudin-1 expression (iHNOs; non-IBD organoids, IHC, vs control): did not change | real-time measurement timepoints with significantly decreased permeability [2]: 50% | Ki67 expression in the epithelium (proliferation) [3, 13]: significantly lower expression | RhoA expression [3, 13]: did not significantly affect | Claudin-1 expression ([3]; iHNOs, IHC, treated vs control): no significant changes | epithelial thickness [3, 14]: did not change | organoid size [3, 14]: significantly smaller organoids | cells with expression of E-cadherin limited to the plasma membrane [3, 15]: significantly more cells with limited expression | cells with expression of β-catenin limited to the plasma membrane [3, 15]: significantly more cells with limited expression | cytoplasmic and nuclear expression of E-cadherin [3, 15]: lower cytoplasmic and nuclear expression | cytoplasmic and nuclear expression of β-catenin [3, 15]: lower cytoplasmic and nuclear expression | CXCL8 expression [3, 16]: significantly less | CXCR1 expression [3, 16]: significantly less
